Data from patent publication US12195596B2, “Hyperbranched boric acid modified phthalonitrile monomer as well as preparation method and use thereof” (priority 2021, dated 2025).

Test: Solubility of phthalonitrile monomers in common organic solvents
Type: physicochemical
Parameters: key: “+” represents “soluble”

Measured: Solubility

N#Cc1ccc(Oc2cccc(OB(Oc3cccc(Oc4ccc(C#N)c(C#N)c4)c3)c3ccccc3)c2)cc1C#N [Example 4]
+: DMF | DMSO | NMP | THF | acetone

N#Cc1ccc(Oc2cccc(OB(Oc3cccc(Oc4ccc(C#N)c(C#N)c4)c3)Oc3cccc(Oc4ccc(C#N)c(C#N)c4)c3)c2)cc1C#N [Example 3]
+: DMF | DMSO | NMP | THF | acetone
